Measured values as given in US8748624B2, “Picolinamido-propanoic acid derivatives useful as glucagon receptor antagonists” (Janssen Pharmaceutica NV, priority 2011, dated 2014).

Experiments:
[1] = target: human GCGR (Homo sapiens (Human), UniProt P47871); test: Cellular functional assay, cAMP readout (glucagon-stimulated cAMP in HEK293 cells expressing human GCGR); type: cell-based; conditions: hGluc-1 HEK cells
Procedure, shortened: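 HEK293 cells stably transfected with full-length human GCGR were exposed to compound for 30 min before a 5-min challenge with […] (final) glucagon. Readout was TR-FRET (LANCE) cAMP versus standard curve; IC50s fitted by non-linear regression and converted to Ki values.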

[2] = target: human glucagon receptor (GCGR) (Homo sapiens (Human), UniProt P47871); test: Inhibition of 125I-glucagon binding to membranes from HEK293 cells expressing the human glucagon receptor; conditions: membranes of hGluc-1 HEK cells, 125I-glucagon 0.3 nM
Procedure, shortened: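 Compound displacement of ¹²⁵I-glucagon (0.3 nM) was run for 2 h at room temperature in 50 mM HEPES pH 7.4 with 5 mM MgCl2, 1 mM CaCl2 and 0.2% BSA, using 6 μg/well membranes from stably transfected hGCGR HEK293 cells. Filter-bound counts gave IC50s, expressed as Ki.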

[3] = LANCE TR-FRET, IC50 converted to Ki, average if tested more than once
[4] = 2 hours room temperature, IC50 converted to Ki, average if tested more than once
[5] = meta-substituted comparative compounds (Table 3)

Sequence of human GCGR (P47871 26-477): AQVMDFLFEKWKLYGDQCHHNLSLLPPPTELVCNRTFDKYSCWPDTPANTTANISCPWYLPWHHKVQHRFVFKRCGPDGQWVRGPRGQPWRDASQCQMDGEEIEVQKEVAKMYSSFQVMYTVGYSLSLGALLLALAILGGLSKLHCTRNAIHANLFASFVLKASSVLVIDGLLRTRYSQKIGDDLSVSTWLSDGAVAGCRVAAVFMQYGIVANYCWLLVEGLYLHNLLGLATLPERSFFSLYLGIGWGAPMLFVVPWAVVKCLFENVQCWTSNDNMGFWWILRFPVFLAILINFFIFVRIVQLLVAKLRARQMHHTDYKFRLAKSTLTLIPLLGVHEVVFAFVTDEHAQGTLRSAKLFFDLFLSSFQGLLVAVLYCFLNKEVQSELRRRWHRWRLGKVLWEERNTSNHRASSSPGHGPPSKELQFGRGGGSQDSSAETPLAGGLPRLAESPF
Sequence of human glucagon receptor (GCGR) (P47871 26-477): as above

Compound | Ki [1, 3] [nM] | Ki [2, 4] [nM] | Ki [1, 5] [nM] | Ki [2, 5] [nM]
O=C(O)CCNC(=O)c1ccc(-c2cc(C(F)(F)F)ccc2CNc2ccc(-c3ccc(Cl)cc3F)c(Cl)c2)cn1 [Compound 37, 3-(5-(2-(((2,4′-dichloro-2′-fluoro-[1,1′-biphenyl]-4-yl)amino)methyl)-5-(trifluoromethyl)phenyl)picolinamido)propanoic acid] | 30 | 23.2 |  | 
O=C(O)CCNC(=O)c1ccc(-c2ccccc2CNc2ccc(-c3ccccc3)cc2)cn1 [Compound 1, 3-(5-(2-(([1,1′-biphenyl]-4-ylamino)methyl)phenyl)picolinamido)propanoic acid] | > 10400 | > 5400 |  | 
Cc1cc(Cl)ccc1-c1ccc(NC(=O)c2ccc(Cl)cc2-c2ccc(C(=O)NCCC(=O)O)nc2)cc1 [Compound 153, 3-(5-(5-chloro-2-((4′-chloro-2′-methyl-[1,1′-biphenyl]-4-yl)carbamoyl)phenyl)picolinamido)propanoic acid] | 28 | 32.9 |  | 
CN(Cc1ccc(Cl)cc1-c1ccc(C(=O)NCCC(=O)O)nc1)c1ccc(-c2ccc(Cl)cc2)cc1 [Compound 17, 3-(5-(5-chloro-2-(((4′-chloro-[1,1′-biphenyl]-4-yl)(methyl)amino)methyl)phenyl)picolinamido)propanoic acid] | > 10400 | 1480 |  | 
O=C(O)CCNC(=O)c1ccc(-c2cc(F)c(F)cc2CNc2ccc(-c3ccc(Cl)cc3)cc2)cn1 [Compound 117, 3-(5-(2-(((4′-chloro-[1,1′-biphenyl]-4-yl)amino)methyl)-4,5-difluorophenyl)picolinamido)propanoic acid] | 160 | 43.5 |  | 
CS(=O)(=O)c1ccc(CNc2ccc(-c3ccc(Cl)cc3)cc2)c(-c2ccc(C(=O)NCCC(=O)O)nc2)c1 [Compound 70, 3-(5-(2-(((4′-chloro-[1,1′-biphenyl]-4-yl)amino)methyl)-5-(methylsulfonyl)phenyl)picolinamido)propanoic acid] | > 10400 | 52.2 |  | 
O=C(O)CCNC(=O)c1ccc(-c2cc(C(F)(F)F)ccc2CNc2ccc(-c3ccc(Cl)cc3Cl)c(Cl)c2)cn1 [Compound 27, 3-(5-(2-(((2,2′,4′-trichloro-[1,1′-biphenyl]-4-yl)amino)methyl)-5-(trifluoromethyl)phenyl)picolinamido)propanoic acid] | 17.3 | 21.5 |  | 
O=C(O)CCNC(=O)c1ccc(-c2cc(Cl)ccc2C(=O)Nc2ccc(-c3ccc(F)cc3)cc2)cn1 [Compound 20, 3-(5-(5-chloro-2-((4′-fluoro-[1,1′-biphenyl]-4-yl)carbamoyl)phenyl)picolinamido)propanoic acid] | 158 | 61.4 |  | 
Cc1cc(Cl)ccc1-c1ccc(NCc2ccc(C(F)(F)F)cc2-c2ccc(C(=O)NCCC(=O)O)nc2)cc1Cl [Compound 34, 3-(5-(2-(((2,4′-dichloro-2′-methyl-[1,1′-biphenyl]-4-yl)amino)methyl)-5-(trifluoromethyl)phenyl)picolinamido)propanoic acid] | 17.1 | 23.8 |  | 
O=C(O)CCNC(=O)c1ccc(-c2cc(C(F)(F)F)ccc2CNc2ccc(-c3ccc(Cl)c(C(F)(F)F)c3)c(Cl)c2)cn1 [Compound 32, 3-(5-(2-(((2,4′-dichloro-3′-(trifluoromethyl)-[1,1′-biphenyl]-4-yl)amino)methyl)-5-(trifluoromethyl)phenyl)picolinamido)propanoic acid] | 72.5 | 25.1 |  | 
O=C(O)CCNC(=O)c1ccc(-c2cc(C(F)(F)F)cc(C(F)(F)F)c2CNc2ccc(-c3ccc(Cl)cc3)cc2)cn1 [Compound 71, 3-(5-(2-(((4′-chloro-[1,1′-biphenyl]-4-yl)amino)methyl)-3,5-bis(trifluoromethyl)phenyl)picolinamido)propanoic acid] | 17.3 | 31.3 |  | 
CC(C)(C)c1ccc(-c2ccc(NCc3ccccc3-c3ccc(C(=O)NCCC(=O)O)nc3)cc2)cc1 [Compound 3, 3-(5-(2-(((4′-(tert-butyl)-[1,1′-biphenyl]-4-yl)amino)methyl)phenyl)picolinamido)propanoic acid] | > 10400 | > 5400 |  | 
N#Cc1cc(NCc2cc(F)c(F)cc2-c2ccc(C(=O)NCCC(=O)O)nc2)ccc1-c1ccc(Cl)cc1Cl [Compound 114, 3-(5-(2-(((2′,4′-dichloro-2-cyano-[1,1′-biphenyl]-4-yl)amino)methyl)-4,5-difluorophenyl)picolinamido)propanoic acid] | 73.5 | 40.4 |  | 
Cc1cc(Cl)ccc1-c1ccc(NCc2c(Cl)cc(C(F)(F)F)cc2-c2ccc(C(=O)NCCC(=O)O)nc2)cc1 [Compound 73, 3-(5-(3-chloro-2-(((4′-chloro-2′-methyl-[1,1′-biphenyl]-4-yl)amino)methyl)-5-(trifluoromethyl)phenyl)picolinamido)propanoic acid] | 3.7 | 19.5 |  | 
O=C(O)CCNC(=O)c1ccc(-c2cc(Cl)ccc2CNc2ccc(-c3ccc(Cl)c(Cl)c3)c(C(F)(F)F)c2)cn1 [Compound 55, 3-(5-(5-chloro-2-(((3′,4′-dichloro-2-(trifluoromethyl)-[1,1′-biphenyl]-4-yl)amino)methyl)phenyl)picolinamido)propanoic acid] | 650 | 156 |  | 
O=C(O)CCNC(=O)c1ccc(-c2cc(Cl)ccc2CNc2ccc(-c3ccc(F)c(F)c3)cc2)cn1 [Compound 136, 3-(5-(5-chloro-2-(((3′,4′-difluoro-[1,1′-biphenyl]-4-yl)amino)methyl)phenyl)picolinamido)propanoic acid] | 253 | 28.6 |  | 
O=C(O)CCNC(=O)c1ccc(-c2cc(Cl)ccc2CNc2ccc(-c3ccc(F)cc3Cl)cc2)cn1 [Compound 152, 3-(5-(5-chloro-2-(((2′-chloro-4′-fluoro-[1,1′-biphenyl]-4-yl)amino)methyl)phenyl)picolinamido)propanoic acid] | 140 | 31.6 |  | 
Cc1cc(-c2ccc(NCc3cc(F)c(F)cc3-c3ccc(C(=O)NCCC(=O)O)nc3)cc2C#N)ccc1F [Compound 115, 3-(5-(2-(((2-cyano-4′-fluoro-3′-methyl-[1,1′-biphenyl]-4-yl)amino)methyl)-4,5-difluorophenyl)picolinamido)propanoic acid] | 500 | 95.7 |  | 
O=C(O)CCNC(=O)c1ccc(-c2cc(Cl)ccc2CNc2ccc(-c3ccc(Cl)cc3)cc2)cn1 [Compound 6, 3-(5-(5-chloro-2-(((4′-chloro-[1,1′-biphenyl]-4-yl)amino)methyl)phenyl)picolinamido)propanoic acid] | 50.5 | 40.1 |  | 
Cc1cc(Cl)ccc1-c1ccc(NCc2ccc(C(F)(F)F)cc2-c2ccc(C(=O)NCCC(=O)O)nc2)cc1 [Compound 22, 3-(5-(2-(((4′-chloro-2′-methyl-[1,1′-biphenyl]-4-yl)amino)methyl)-5-(trifluoromethyl)phenyl)picolinamido)propanoic acid] | 22.4 | 25.2 |  | 
Cc1cc(NCc2cc(Cl)c(C(F)(F)F)cc2-c2ccc(C(=O)NCCC(=O)O)nc2)ccc1-c1ccc(Cl)cc1 [Compound 79, 3-(5-(4-chloro-2-(((4′-chloro-2-methyl-[1,1′-biphenyl]-4-yl)amino)methyl)-5-(trifluoromethyl)phenyl)picolinamido)propanoic acid] | 31.6 | 24 |  | 
CC(C)(C)c1ccc(-c2ccc(NCc3ccc(Cl)cc3-c3ccc(C(=O)NCCC(=O)O)nc3)cc2Cl)cc1 [Compound 168, 3-(5-(2-(((4′-(tert-butyl)-2-chloro-[1,1′-biphenyl]-4-yl)amino)methyl)-5-chlorophenyl)picolinamido)propanoic acid] | 370 | 37.9 |  | 
O=C(O)CCNC(=O)c1ccc(-c2cc(Cl)cc(CNc3ccc(-c4ccc(Cl)cc4)cc3)c2)cn1 [Compound M3, 3-(5-(3-chloro-5-(((4′-chloro-[1,1′-biphenyl]-4-yl)amino)methyl)phenyl)picolinamido)propanoic acid, reference compound] |  |  | > 10400 | > 1350
O=C(O)CCNC(=O)c1ccc(-c2cc(C(F)(F)F)c(Cl)cc2CNc2ccc(-c3ccc(Cl)cc3)c(Cl)c2)cn1 [Compound 78, 3-(5-(4-chloro-2-(((2,4′-dichloro-[1,1′-biphenyl]-4-yl)amino)methyl)-5-(trifluoromethyl)phenyl)picolinamido)propanoic acid] | 25 | 24 |  | 
O=C(O)CCNC(=O)c1ccc(-c2cc(F)c(F)cc2CNc2ccc(-c3ccc(Cl)c(C(F)(F)F)c3)c(Cl)c2)cn1 [Compound 106, 3-(5-(2-(((2,4′-dichloro-3′-(trifluoromethyl)-[1,1′-biphenyl]-4-yl)amino)methyl)-4,5-difluorophenyl)picolinamido)propanoic acid] | 320 | 26.1 |  | 
Cc1ccc(CNc2ccc(-c3ccc(Cl)cc3)cc2)c(-c2ccc(C(=O)NCCC(=O)O)nc2)c1 [Compound 68, 3-(5-(2-(((4′-chloro-[1,1′-biphenyl]-4-yl)amino)methyl)-5-methylphenyl)picolinamido)propanoic acid] | 151 | 40 |  | 
O=C(O)CCNC(=O)c1ccc(-c2cc(Cl)ccc2CNc2ccc(-c3ccccc3F)cc2)cn1 [Compound 133, 3-(5-(5-chloro-2-(((2′-fluoro-[1,1′-biphenyl]-4-yl)amino)methyl)phenyl)picolinamido)propanoic acid] | 2000 | 104 |  | 
